Key:
Type in all cases: functional
UO-31 = assay: Growth inhibition of Homo sapiens (human) UO31 cells at 10 uM after 48 hr by SRB assay; settings: UO-31, 48 h, read-out: GI
K562 = assay: Growth inhibition of Homo sapiens (human) K562 cells at 10 uM after 48 hr by SRB assay; settings: K562, 48 h, read-out: GI
HOP-92 = assay: Growth inhibition of Homo sapiens (human) HOP92 cells at 10 uM after 48 hr by SRB assay; settings: HOP-92, 48 h, read-out: GI
OVCAR-5 = assay: Growth inhibition of Homo sapiens (human) OVCAR5 cells at 10 uM after 48 hr by SRB assay; settings: OVCAR-5, 48 h, read-out: GI
MOLT-4 = assay: Growth inhibition of Homo sapiens (human) MOLT4 cells at 10 uM after 48 hr by SRB assay; settings: MOLT-4, 48 h, read-out: GI
HL-60(TB) = assay: Growth inhibition of Homo sapiens (human) HL-60(TB) cells at 10 uM after 48 hr by SRB assay; settings: HL-60, 48 h, read-out: GI
CCRF-CEM = assay: Growth inhibition of Homo sapiens (human) CCRF-CEM cells at 10 uM after 48 hr by SRB assay; settings: read-out: GI
A498 = assay: Growth inhibition of Homo sapiens (human) A498 cells at 10 uM after 48 hr by SRB assay; settings: A498, 48 h, read-out: GI
SR = assay: Growth inhibition of Homo sapiens (human) SR cells at 10 uM after 48 hr by SRB assay; settings: read-out: GI
BT-549 = assay: Growth inhibition of Homo sapiens (human) BT549 cells at 10 uM after 48 hr by SRB assay; settings: BT-549, 48 h, read-out: GI
CAKI-1 = assay: Growth inhibition of Homo sapiens (human) CAKI-1 cells at 10 uM after 48 hr by SRB assay; settings: CAKI-1, 48 h, read-out: GI
PC-3 = assay: Growth inhibition of Homo sapiens (human) PC3 cells at 10 uM after 48 hr by SRB assay; settings: PC-3, 48 h, read-out: GI
MDA-MB-468 = assay: Growth inhibition of Homo sapiens (human) MDA-MB-468 cells at 10 uM after 48 hr by SRB assay; settings: MDA-MB-468, 48 h, read-out: GI
RPMI-8226 = assay: Growth inhibition of Homo sapiens (human) RPMI8226 cells at 10 uM after 48 hr by SRB assay; settings: RPMI-8226, 48 h, read-out: GI
NCI-H23 = assay: Growth inhibition of Homo sapiens (human) NCI-H23 cells at 10 uM after 48 hr by SRB assay; settings: NCI-H23, 48 h, read-out: GI

| Structure (SMILES) | inhibition of growth at 10 µM (K562) | inhibition of growth at 10 µM (HOP-92) | inhibition of growth at 10 µM (CCRF-CEM) | other results |
| --- | --- | --- | --- | --- |
| Cn1cccc1-c1cc(-c2ccc(Br)cc2)n(C=O)c(=O)c1C#N | 54.8% | 24.2% |  | inhibition of growth at 10 µM (UO-31): 29.7%; inhibition of growth at 10 µM (OVCAR-5): 26.9% |
| COc1ccc(-c2cc(-c3cccn3C)c(C#N)c(=O)n2C=O)cc1OC | 21.4% |  | 47.1% | inhibition of growth at 10 µM (MOLT-4): 28.5%; inhibition of growth at 10 µM (HL-60(TB)): 57.1% |
| Cn1cccc1-c1cc(-c2ccc(Br)cc2)n(N=O)c(=O)c1C#N |  | 28.2% |  | inhibition of growth at 10 µM (A498): 25.7%; inhibition of growth at 10 µM (SR): 37.5%; inhibition of growth at 10 µM (BT-549): 32.8% |
| COc1ccc(-c2cc(-c3cccn3C)c(C#N)c(=O)n2N=O)cc1OC | 26.6% | 26.8% |  |  |
| COc1ccc(-c2cc(-c3cccs3)n(N=O)c(=O)c2C#N)cc1 | 65.8% | 36.2% | 42% |  |
| COc1ccc(-c2cc(-c3cccn3C)c(C#N)c(=O)n2C(=S)Nc2ccc(F)cc2)cc1OC | 26.9% |  |  | inhibition of growth at 10 µM (CAKI-1): 31.1%; inhibition of growth at 10 µM (SR): 27.8% |
| CCn1c(-c2ccc(Br)cc2)cc(-c2cccn2C)c(C#N)c1=O |  | 28.3% | 62.5% | inhibition of growth at 10 µM (PC-3): 28%; inhibition of growth at 10 µM (MDA-MB-468): 30%; inhibition of growth at 10 µM (RPMI-8226): 35% |
| Cn1cccc1-c1cc(-c2ccc(Br)cc2)n(Cc2ccccc2)c(=O)c1C#N | 45.4% | 44.7% | 39.5% | inhibition of growth at 10 µM (PC-3): 32.5%; inhibition of growth at 10 µM (RPMI-8226): 38.2% |
| CCn1c(-c2ccc(OC)c(OC)c2)cc(-c2cccn2C)c(C#N)c1=O | 63.5% | 29% | 43.7% | inhibition of growth at 10 µM (A498): 44% |
| COc1ccc(-c2cc(-c3cccn3C)c(C#N)c(=O)n2Cc2ccccc2)cc1OC |  |  |  | inhibition of growth at 10 µM (RPMI-8226): 64.1% |
| COc1ccc(-c2cc(-c3cccs3)n(Cc3ccccc3)c(=O)c2C#N)cc1 | 50.4% | 26.8% |  | inhibition of growth at 10 µM (NCI-H23): 21%; inhibition of growth at 10 µM (UO-31): 23.5% |
| Cn1cccc1-c1cc(-c2ccc(Br)cc2)n(S(=O)(=O)c2ccccc2)c(=O)c1C#N | 22.5% | 26% | 55.9% | inhibition of growth at 10 µM (NCI-H23): 22.2%; inhibition of growth at 10 µM (MOLT-4): 26.6%; inhibition of growth at 10 µM (HL-60(TB)): 59.7% |
